In patent publication US20210078917A1, “FUNGICIDAL FERTILIZER COMPOSITION COMPRISING POTASSIUM PHOSPHITE AND GAMMA-POLY-GLUTAMIC ACID” (JIANGSU HUIFENG BIO AGRICULTURE CO., LTD., priority 2018, published 2021):

Tests used:
Format in all cases: in vivo
soybean = assay: Yield increase test of soybean; conditions: for Yield (667 M^2): per 667 M^2
Method: (§1) Fertilization method: The fertilizer was co-applied with other fertilizers. The yield, quality and control effect on disease on soybean were determined.

pepper = assay: Yield increase and quality test of pepper; conditions: 40 g active ingredient per mu
Method: This fertilizer was applied on the basis of conventional fertilization in each treatment area. Fertilization method: The fertilizer was applied by spraying during the seedling stage of pepper. The yield, quality and control effect on disease on pepper were determined.

[1] = system: root rot, a soil-borne disease of soybeans; assay: Disease control test of soybean, root rot
Method: as §1

## γ-poly-glutamic acid
soybean; 15 g/mu
  Branches: 17.5 count
  Increase rate (branches): 1.2%
  Increase rate (weight per 100 grains): 2.8%
  Increase rate (yield): 2.9%
  Weight per 100 grains: 25.43 g
  Yield (667 M^2): 181.7
soybean; 50 g/mu
  Branches: 17.8 count
  Increase rate (branches): 2.7%
  Increase rate (weight per 100 grains): 3.5%
  Increase rate (yield): 4.5%
  Weight per 100 grains: 25.61 g
  Yield (667 M^2): 184.5
soybean; 100 g/mu
  Branches: 18.0 count
  Increase rate (branches): 4.1%
  Increase rate (weight per 100 grains): 4.1%
  Increase rate (yield): 5.7%
  Weight per 100 grains: 25.75 g
  Yield (667 M^2): 186.7
soybean; 300 g/mu
  Branches: 18.1 count
  Increase rate (branches): 4.6%
  Increase rate (weight per 100 grains): 5.3%
  Increase rate (yield): 7.3%
  Weight per 100 grains: 26.05 g
  Yield (667 M^2): 189.5
soybean; 600 g/mu
  Branches: 18.3 count
  Increase rate (branches): 5.7%
  Increase rate (weight per 100 grains): 6.8%
  Increase rate (yield): 10.5%
  Weight per 100 grains: 26.42 g
  Yield (667 M^2): 195.1
pepper
  Quality: Vitamin C: 26.8 mg/100 g
  Yield: Total yield: 3382 kg/mu
  Yield: Weight of single fruit: 49.2 g
[1]; 15 g/mu, 12 days after application
  Control effect: 9.70%
[1]; 15 g/mu, 35 days after application
  Control effect: 4.22%
[1]; 50 g/mu, 12 days after application
  Control effect: 14.20%
[1]; 50 g/mu, 35 days after application
  Control effect: 7.86%
[1]; 100 g/mu, 12 days after application
  Control effect: 20.13%
[1]; 100 g/mu, 35 days after application
  Control effect: 10.67%
[1]; 300 g/mu, 12 days after application
  Control effect: 22.71%
[1]; 300 g/mu, 35 days after application
  Control effect: 15.76%
[1]; 600 g/mu, 12 days after application
  Control effect: 27.52%
[1]; 600 g/mu, 35 days after application
  Control effect: 18.89%
